# Entries after “also recorded” stand apart in the source; their conditions may differ.
# Molecular target: VEGFR2 (purified cytoplasmic domain KDR protein) (Homo sapiens (Human), UniProt P35968)
# Assay: VEGFR2 Kinase Assay (biochemical KDR kinase assay, ELISA readout)
# Conditions: for IC50: 2.7 μM ATP, poly-Glu-Tyr (4:1) substrate, 15 minute incubation at 30° C.; for VEGFR2 potency as shown in this assay (in words): qualitative ranking based on the Table 2 data
# Protocol: VEGFR2 kinase potency of select analogs was determined by the following assay:
# Biochemical KDR kinase assays were performed in 96 well microtiter plates that were coated overnight with 75 μg/well of poly-Glu-Tyr (4:1) in 10 mM Phosphate Buffered Saline (PBS), pH 7.4. The coated plates were washed with 2 mls per well PBS+0.05% Tween-20 (PBS-T), blocked by incubation with PBS containing 1% BSA, then washed with 2 mls per well PBS-T prior to starting the reaction. Reactions were carried out in 100 μL reaction volumes containing 2.7 μM ATP in kinase buffer (50 mM Hepes buffer pH 7.4, 20 mM MgCl2, 0.1 mM MnCl2 and 0.2 mM Na3VO4). Test compounds were reconstituted in 100% DMSO and added to the reaction to give a final DMSO concentration of 5%. Reactions were initiated by the addition 20 ul per well of kinase buffer containing 200-300 ng purified cytoplasmic domain KDR protein (BPS Bioscience, San Diego, Calif.). Following a 15 minute incubation at 30° C., the reactions were washed 2 mls per well PBS-T. 100 μl of a monoclonal anti-phosphotyrosine antibody-peroxidase conjugate diluted 1:10,000 in PBS-T was added to the wells for 30 minutes. Following a 2 mls per well wash with PBS-Tween-20, 100 μl of O-Phenylenediamine Dihydrochloride in phosphate-citrate buffer, containing urea hydrogen peroxide, was added to the wells for 7-10 minutes as a colorimetric substrate for the peroxidase. The reaction was terminated by the addition of 100 μl of 2.5N H2SO4 to each well and read using a microplate ELISA reader set at 492 nm. IC50 values for compound inhibition were calculated directly from graphs of optical density (arbitrary units) versus compound concentration following subtraction of blank values.
# Chain of VEGFR2 (purified cytoplasmic domain KDR protein) (P35968 786-1356): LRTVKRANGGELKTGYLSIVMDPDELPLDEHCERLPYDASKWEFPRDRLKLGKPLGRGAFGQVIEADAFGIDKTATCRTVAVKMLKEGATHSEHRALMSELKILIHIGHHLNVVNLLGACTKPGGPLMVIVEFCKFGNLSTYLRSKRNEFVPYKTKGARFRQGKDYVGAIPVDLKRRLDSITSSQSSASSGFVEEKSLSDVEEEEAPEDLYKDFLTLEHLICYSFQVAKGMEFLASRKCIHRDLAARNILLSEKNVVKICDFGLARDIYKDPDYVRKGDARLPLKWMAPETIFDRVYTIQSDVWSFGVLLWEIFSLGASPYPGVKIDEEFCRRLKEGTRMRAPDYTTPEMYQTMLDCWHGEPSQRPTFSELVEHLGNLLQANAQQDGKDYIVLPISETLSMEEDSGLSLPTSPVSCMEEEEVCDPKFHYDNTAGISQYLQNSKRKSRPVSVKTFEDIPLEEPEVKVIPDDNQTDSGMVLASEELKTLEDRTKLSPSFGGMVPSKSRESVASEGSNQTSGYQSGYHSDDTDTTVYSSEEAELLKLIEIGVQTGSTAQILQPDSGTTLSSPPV
SMILES,IC50 [nM],VEGFR2 potency as shown in this assay (in words)
"NC(=O)/C=C(/c1ccccc1)c1ccc(NC(=O)Nc2cc(C(F)(F)F)ccc2F)cc1 [Example 1, (2Z)-3-{4-[({[2-fluoro-5-(trifluoromethyl)phenyl]amino}carbonyl)amino]phenyl}-3-phenylacrylamide]",626,excellent VEGFR2 potency
"COc1ccc(/C(=C/C(N)=O)c2ccc(NC(=O)Nc3cc(C(F)(F)F)ccc3F)cc2)cc1 [Example 3, (2E)-3-{4-[({[2-fluoro-5-(trifluoromethyl)phenyl]amino}carbonyl)amino]phenyl}-3-(4-methoxyphenyl)acrylamide]",457,excellent VEGFR2 potency; also recorded: best VEGFR2 potency
"COc1cccc(/C(=C/C(N)=O)c2ccc(NC(=O)Nc3cc(C(F)(F)F)ccc3F)cc2)c1 [Example 2, (2E)-3-{4-[({[2-fluoro-5-(trifluoromethyl)phenyl]amino}carbonyl)amino]phenyl}-3-(3-methoxyphenyl)acrylamide]",945,excellent VEGFR2 potency
"NC(=O)/C=C(/c1ccccc1)c1cccc(NC(=O)Nc2cc(C(F)(F)F)ccc2F)c1 [Example 4, (2Z)-3-{3-[({[2-fluoro-5-(trifluoromethyl)phenyl]amino}carbonyl)amino]phenyl}-3-phenylacrylamide]",> 10000,

# Further lines, results first:
IC50 [nM],VEGFR2 potency as shown in this assay (in words),SMILES
> 10000,,"NC(=O)/C=C/c1ccc(NC(=O)Nc2cc(C(F)(F)F)ccc2F)cc1 [Example 6, (2E)-3-{4-[({[2-fluoro-5-(trifluoromethyl)phenyl]amino}carbonyl)amino]phenyl}acrylamide]"
> 10000,,"NC(=O)/C=C/c1cccc(NC(=O)Nc2cc(C(F)(F)F)ccc2F)c1 [Example 5, (2E)-3-{3-[({[2-fluoro-5-(trifluoromethyl)phenyl]amino}carbonyl)amino]phenyl}acrylamide]"
2790,excellent VEGFR2 potency,"NC(=O)/C=C\c1ccc(NC(=O)Nc2cc(C(F)(F)F)ccc2F)cc1 [Example 7, (2Z)-3-{4-[({[2-fluoro-5-(trifluoromethyl)phenyl]amino}carbonyl)amino]phenyl}acrylamide]"

# Reference: US9321721B2, “Kinase inhibitors” (Allergan, Inc., priority 2013, dated 2016)
